From PMC7528081, “The electrophysiological effect of cannabidiol on hERG current and in guinea-pig and rabbit cardiac preparations” (Scientific Reports, 2020)

Each compound was assayed against T1, hERG potassium channel (Homo sapiens, UniProt Q12809) (assay: automated whole-cell patch clamp (Patchliner), HEK […] cells expressing hERG, room temperature).
T1 construct: gene KCNH2
Format: cell-based

T1 sequence (Q12809 whole entry): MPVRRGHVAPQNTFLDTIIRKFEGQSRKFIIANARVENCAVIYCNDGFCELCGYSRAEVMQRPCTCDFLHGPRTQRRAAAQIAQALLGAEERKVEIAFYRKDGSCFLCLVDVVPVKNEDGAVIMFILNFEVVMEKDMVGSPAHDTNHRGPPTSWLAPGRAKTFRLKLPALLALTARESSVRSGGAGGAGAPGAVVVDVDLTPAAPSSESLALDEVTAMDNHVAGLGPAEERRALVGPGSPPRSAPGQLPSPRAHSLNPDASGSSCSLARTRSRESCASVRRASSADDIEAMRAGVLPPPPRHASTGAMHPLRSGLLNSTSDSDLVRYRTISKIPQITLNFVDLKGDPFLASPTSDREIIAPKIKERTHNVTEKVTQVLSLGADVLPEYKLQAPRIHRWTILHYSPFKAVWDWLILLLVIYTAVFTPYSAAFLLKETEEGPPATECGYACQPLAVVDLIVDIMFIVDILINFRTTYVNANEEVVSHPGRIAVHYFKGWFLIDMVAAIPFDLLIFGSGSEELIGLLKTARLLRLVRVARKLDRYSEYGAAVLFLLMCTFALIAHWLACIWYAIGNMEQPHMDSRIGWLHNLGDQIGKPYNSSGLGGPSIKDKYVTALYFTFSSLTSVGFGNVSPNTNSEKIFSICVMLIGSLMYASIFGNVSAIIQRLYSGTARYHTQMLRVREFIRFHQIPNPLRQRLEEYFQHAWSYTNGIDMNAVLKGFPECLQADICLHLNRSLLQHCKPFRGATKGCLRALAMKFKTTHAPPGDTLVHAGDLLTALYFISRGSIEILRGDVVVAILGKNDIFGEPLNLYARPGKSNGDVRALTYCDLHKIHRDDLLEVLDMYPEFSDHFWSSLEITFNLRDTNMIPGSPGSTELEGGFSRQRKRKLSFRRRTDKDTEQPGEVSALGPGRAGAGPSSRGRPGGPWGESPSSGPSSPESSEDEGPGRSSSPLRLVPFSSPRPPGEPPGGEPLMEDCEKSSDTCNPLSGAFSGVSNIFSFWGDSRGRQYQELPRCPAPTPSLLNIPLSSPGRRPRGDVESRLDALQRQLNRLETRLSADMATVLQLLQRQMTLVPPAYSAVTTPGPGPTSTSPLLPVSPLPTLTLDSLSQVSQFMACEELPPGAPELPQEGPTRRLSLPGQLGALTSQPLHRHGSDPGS

SMILES | IC50 [µM]
C=C(C)[C@@H]1CCC(C)=C[C@H]1c1c(O)cc(CCCCC)cc1O [cannabidiol] | 2.07 ± 0.12
CCCCCc1cc(O)c2c(c1)OC(C)(C)[C@@H]1CCC(C)=C[C@@H]21 [tetrahydrocannabinol] | 10.3 ± 0.55
CCCCCc1cc(O)c2c(c1)OC(C)(C)[C@@H]1CCC(C(=O)O)=C[C@@H]21 [11-nor-9-carboxy-tetrahydrocannabinol] | 65.4 ± 3.82
